“And” between values parts separate entries of the source, which are not always exact repeats. Equal values may be shown once. Read-outs that look alike come from different tables or passages of the source.
Tests used:
[1] = test system: HCoV-229E; test: Infection of ALI-cultured primary HBEs, HCoV-229E; format: cell-based
Description: (§1) Primary HBEs at passage 3 or earlier were seeded at a density of 40,000 cells per well in Transwell inserts (Costar 6.5 mm Transwell, 0.4 μm Pore Polyester Membrane Inserts, catalog 3470) for expansion culture. The cells were cultured in expansion medium (PneumaCult-Ex Plus Medium, catalog 05040) until tight junctions were formed. Once tight junctions were established, the expansion medium in the upper chamber was discarded, and the medium in the lower chamber was replaced with ALI differentiation medium (PneumaCult-ALI Medium, catalog 05001). Cells were maintained under ALI conditions, with the medium being changed every 2 days. The differentiation process was carried out for 21 days, during which cell morphology and differentiation status were monitored. The fully differentiated cells were infected with HCoV-OC43, HCoV-229E, HCoV-NL63, or SARS-CoV-2 (MOI = 1), and fresh medium was changed 1 hour postinfection. Specific peptide was added into the medium every 24 hours. At 96 hours postinfection, cells in Transwell inserts were washed with 140 μL PBS per insert, and the wash fluid was collected to extract virus RNA followed by RT-qPCR. […] The fluorescence was measured using ImageJ (NIH).

[2] = test system: MHV
[3] = test system: MHV; format: cell-based, mouse hepatitis virus (MHV)
[4] = test system: MERS VLP; format: cell-based, MERS-CoV
[5] = test system: SARS-CoV-2 VLP; format: cell-based
[6] = test system: HCoV-229E; test: In vitro antiviral activity assay (IFA), HCoV-229E; format: cell-based; settings: for Inhibition rate (IFA): Fig 5F, MOI 0.1, 48 h
[7] = test system: WIV1; test: microbe, parasite or virus in culture; format: cell-based, bat coronavirus WIV1; settings: Bat coronavirus, 48 h, read-out: EC50 (IFA)
[8] = test system: 17Cl-1 cells
[9] = test system: HCoV-HKU1 VLP; format: cell-based
[10] = test system: SARS-CoV-2 Omicron BA.5; test: microbe, parasite or virus in culture; format: cell-based; settings: Severe acute respiratory syndrome coronavirus 2, 24 h, read-out: EC50 (IFA)
[11] = test system: HCoV-NL63; test: Infection of ALI-cultured primary HBEs, HCoV-NL63; format: cell-based
Description: as §1

[12] = test system: SARS-CoV-2 wild-type; test: microbe, parasite or virus in culture; format: cell-based; settings: Severe acute respiratory syndrome coronavirus 2, 24 h, read-out: EC50 (IFA)
[13] = test system: HCoV-OC43 VLP; format: cell-based
[14] = test system: Calu-3 cells
[15] = test system: Vero E6 cells
[16] = Tolerability of RTB in mice; settings: high concentrations (500 mg/kg)
[17] = molecular target: hHGS 1-390-6 × HIS protein (Homo sapiens, UniProt O14964); test: biochemical
hHGS 1-390-6 × HIS protein, sequence (O14964 1-390): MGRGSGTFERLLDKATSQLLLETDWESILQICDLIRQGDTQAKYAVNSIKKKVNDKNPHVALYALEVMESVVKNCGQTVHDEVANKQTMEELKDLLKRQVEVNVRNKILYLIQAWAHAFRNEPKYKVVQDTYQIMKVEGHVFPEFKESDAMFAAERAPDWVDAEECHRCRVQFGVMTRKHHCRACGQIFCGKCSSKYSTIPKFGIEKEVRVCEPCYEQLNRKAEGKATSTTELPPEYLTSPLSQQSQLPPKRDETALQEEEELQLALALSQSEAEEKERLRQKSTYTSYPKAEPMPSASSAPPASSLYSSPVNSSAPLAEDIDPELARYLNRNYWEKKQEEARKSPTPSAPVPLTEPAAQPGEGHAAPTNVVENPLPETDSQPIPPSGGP

CCCC(=O)OC[C@@H](OC(=O)CCC)[C@@H](OC(=O)CCC)[C@H](Cn1c2nc(=O)[nH]c(=O)c-2nc2cc(C)c(C)cc21)OC(=O)CCC [RTB, riboflavin tetrabutyrate]
extracellular viral gRNA levels (RT-qPCR) ([1]; Fig 5H, HCoV-229E MOI = 1, ALI-cultured HBEs, 96 h, RTB dose 5 (unit not given)): 7 and 6 and 8 | inhibition of infection in ALI cultures of HBEs ([1]; HCoV-229E): significant, dose-dependent inhibition | viability of infected cells (rescue of cytopathic effect), Figures S9G-L ([2]; concentration 10): 46.6398 and 47.8192 and 45.9379 | viability of infected cells (rescue of cytopathic effect), Figures S9G-L ([2]; concentration 30): 48.4931 and 47.9876 and 45.7132 | viability of infected cells (rescue of cytopathic effect), Figures S9G-L ([2]; concentration 100): 49.4197 and 48.1842 and 47.2295 | viability of infected cells (rescue of cytopathic effect), Figures S9G-L ([2]; concentration 300): 52.6488 and 47.5665 and 45.7132 | viability of infected cells (rescue of cytopathic effect), Figures S9G-L ([2]; concentration 1000): 53.6878 and 50.8517 and 50.0094 | viability of infected cells (rescue of cytopathic effect), Figures S9G-L ([2]; concentration 3000): 66.4358 and 61.915 and 62.9259 | viability of infected cells (rescue of cytopathic effect), Figures S9G-L ([2]; concentration 10000): 81.009 and 81.0651 and 81.6829 | viability of infected cells (rescue of cytopathic effect), Figures S9G-L ([2]; concentration 25000): 85.0805 and 84.4908 and 83.1711 | Extracellular MHV gRNA (Figure S11A) ([3]; Ctr 17Cl-1 cells, 24 hpi): 2.752 and 2.754 and 2.756 | Extracellular MHV gRNA (Figure S11A) ([3]; Ctr 17Cl-1 cells, 48 hpi): 3.4199 and 3.426 and 3.424 | Extracellular MHV gRNA (Figure S11A) ([3]; Ctr 17Cl-1 cells, 72 hpi): 4.001 and 4.062 and 3.972 | Extracellular MHV gRNA (Figure S11A) ([3]; Hgs-KO1 17Cl-1 cells, 24 hpi): 1.499 and 1.531 and 1.548 | Extracellular MHV gRNA (Figure S11A) ([3]; Hgs-KO1 17Cl-1 cells, 48 hpi): 1.985 and 1.987 and 1.914 | Extracellular MHV gRNA (Figure S11A) ([3]; Hgs-KO1 17Cl-1 cells, 72 hpi): 3.343 and 3.307 and 3.373 | Extracellular MHV gRNA (Figure S11A) ([3]; Hgs-KO2 17Cl-1 cells, 24 hpi): 1.087 and 1.162 and 1.202 | Extracellular MHV gRNA (Figure S11A) ([3]; Hgs-KO2 17Cl-1 cells, 48 hpi): 1.5876 and 1.652 and 1.594 | Extracellular MHV gRNA (Figure S11A) ([3]; Hgs-KO2 17Cl-1 cells, 72 hpi): 2.484 and 2.493 and 2.452 | antiviral activity in Hgs-KO cells ([3]; MHV, Hgs-KO 17Cl-1, RTB 25 μM or RDV 5 μM, compared with DMSO-treated Hgs-KO cells): failed to inhibit viral infection | VLPs' release [4]: concentration-dependent inhibition | VLPs' release [5]: concentration-dependent inhibition | Inhibition rate (IFA) ([6]; conc 10 (unit not given)): 1.96% and 3.23% and 5.67% | Inhibition rate (IFA) ([6]; conc 30 (unit not given)): 3.76% and 4.49% and 3.62% | Inhibition rate (IFA) ([6]; conc 100 (unit not given)): 5.42% and 6.32% and 1.81% | Inhibition rate (IFA) ([6]; conc 200 (unit not given)): 10.91% and 9.21% and 8.05% | Inhibition rate (IFA) ([6]; conc 1000 (unit not given)): 20.9% and 20.96% and 21.52% | Inhibition rate (IFA) ([6]; conc 5000 (unit not given)): 53.61% and 55.59% and 56.09% | Inhibition rate (IFA) ([6]; conc 10000 (unit not given)): 87.09% and 86.7% and 87.17% | Inhibition rate (IFA) ([6]; conc 20000 (unit not given)): 98.7% and 98.72% and 98.89% | EC50 ([6]; Human coronavirus 229E, 48 h, read-out: EC50 (IFA)): 6.11 µM | EC50 [7]: 3.53 µM | cell viability, Figure S9C ([8]; concentration 100): 97.7719 and 100.641 and 97.299 | cell viability, Figure S9C ([8]; concentration 200): 98.9701 and 100.61 and 98.3395 | cell viability, Figure S9C ([8]; concentration 500): 100.294 and 99.5691 and 98.0557 | cell viability, Figure S9C ([8]; concentration 1000): 100.137 and 99.6952 and 100.704 | cell viability, Figure S9C ([8]; concentration 2000): 101.366 and 100.294 and 100.61 | cell viability, Figure S9C ([8]; concentration 5000): 101.555 and 101.524 and 100.673 | cell viability, Figure S9C ([8]; concentration 10000): 99.979 and 101.24 and 100.294 | cell viability, Figure S9C ([8]; concentration 20000): 99.506 and 99.1907 and 98.4025 | VLPs' release [9]: concentration-dependent inhibition | EC50 [10]: 4.09 µM | extracellular viral gRNA levels (RT-qPCR) ([11]; Fig 5J, HCoV-NL63 MOI = 1, ALI-cultured HBEs, 96 h, RTB dose 5 (unit not given)): 46 and 42 and 25 | inhibition of infection in ALI cultures of HBEs ([11]; HCoV-NL63): significant, dose-dependent inhibition | EC50 [12]: 14.8 µM | VLPs' release [13]: concentration-dependent inhibition | cell viability, Figure S9N ([14]; concentration 100): 105.852 and 107.383 and 107.23 | cell viability, Figure S9N ([14]; concentration 200): 101.565 and 101.412 and 100.391 | cell viability, Figure S9N ([14]; concentration 500): 101.157 and 97.3801 and 98.3498 | cell viability, Figure S9N ([14]; concentration 1000): 97.9415 and 98.4518 and 97.0228 | cell viability, Figure S9N ([14]; concentration 2000): 101.616 and 101.361 and 95.2365 | cell viability, Figure S9N ([14]; concentration 5000): 102.331 and 100.647 and 99.932 | cell viability, Figure S9N ([14]; concentration 10000): 101.31 and 101.055 and 99.5747 | cell viability, Figure S9N ([14]; concentration 20000): 107.281 and 106.312 and 107.792 | cell viability, Figure S9M ([15]; concentration 100): 90.9619 and 91.4921 and 91.5678 | cell viability, Figure S9M ([15]; concentration 200): 83.3123 and 82.1005 and 89.9015 | cell viability, Figure S9M ([15]; concentration 500): 91.4921 and 86.1146 and 87.6294 | cell viability, Figure S9M ([15]; concentration 1000): 92.9311 and 88.614 and 83.4638 | cell viability, Figure S9M ([15]; concentration 2000): 97.5511 and 94.5216 and 90.4317 | cell viability, Figure S9M ([15]; concentration 5000): 93.6885 and 92.1737 and 93.0068 | cell viability, Figure S9M ([15]; concentration 10000): 96.718 and 96.0363 and 91.6435 | cell viability, Figure S9M ([15]; concentration 20000): 91.6435 and 99.3688 and 98.3085 | cytotoxicity or adverse effects in mice [16]: no cytotoxicity or adverse effects | Kd [17]: 4.82 µM

From PMC12948427 (The Journal of Clinical Investigation, 2025)
